Data from publication PMC11504387, “Synthesis and Biological Activity Assessment of 2-Styrylbenzothiazoles as Potential Multifunctional Therapeutic Agents” (Antioxidants, 2024).

Tests used:
PMNL = test: ROS production in PMA-stimulated PMNL; assay type: cell-based, human; conditions: 10 µM, mean ± SD
Method: After 10 min at 37 °C, PMA (0.1 μM) was added. The fluorescence emission at 530 nm was measured after excitation at 485 nm in a thermally controlled (37 °C) NOVOstar microplate reader (BMG Lab technologies GmbH, Offenburg, Germany). […] ROS generation was induced by phorbol-12-myristate-13-acetate (PMA), a widely recognized agent for stimulating ROS production in neutrophils and enhancing endogenous superoxide formation. Diphenyleneiodonium (DPI, 10 µM), a NADPH oxidase inhibitor, served as a positive control. Through this assay, we could assess the potential interaction of our compounds with intracellular ROS production and their capacity to act as radical scavengers within a relevant cellular context. Furthermore, the outcomes provided additional insights into their inhibitory mechanism and helped to determine whether they act directly or non-specifically, as there is evidence that an impact on the ROS levels in PMNL could be translated to modulation of 5-LO activity in the cellular environment. […] With those data in hand, together with 5-LO inhibition assay outcomes, a direct inhibition of the enzyme stands as the best fitting option regarding the mechanism of action of compounds BZTst4 and BZTst6. […] This phenomenon was not further explored because such investigation was beyond the scope of this work.

[1] = UV spectrophotometric analysis of compounds in solution; assay type: physicochemical; conditions: at ʎmax, Lambert–Beer equation
Method: The synthesized compounds were solubilised in DMSO and diluted in MeOH, and the absorbance of the 10 µg/mL solution was measured between 290–400 nm with a UV-Vis spectrophotometer (SHIMADZU UV-2600 240 V, 1 cm quartz cell at 1 nm intervals). The absorbance at wavelength λ is related to the transmittance T(λ) via the Equation (1): A(λ) = −Log[T(λ)](1) where T(λ) is the fraction of incident irradiance transmitted by the sample. […]
The molar extinction coefficient was calculated with the absorbance recorded at the ʎmax applying the Lambert–Beer equation.

[2] = In vitro filtering parameters of O/W sunscreen formulation on PMMA plates; conditions: 3% in O/W sunscreen formulation
Method: Synthesized compounds were incorporated at 3% concentration in a suitable oil-in-water (O/W) emulsion for cosmetic use as sunscreen.
INCI: Aqua, Glycerin, Xanthan Gum, Phenoxyethanol (and) Ethylhexylglycerin, Tribehenin PEG-20 Esters, Cetearyl Alcohol, Dicaprylyl Carbonate, PPG 26 Buteth-26 (and) PEG 40 Hydrogenated Castor Oil, C12-15 Alkyl Benzoate, Sodium hydroxide (sol. 10%).
A protocol previously reported by us was adopted. Briefly, 32.5 mg of each compound formulation was spread on the rough surface of 5 × 5 cm^2 PMMA plates in the form of small drops of approximately equal mass, in triplicate. The plates were placed in the dark for 15–30 min to allow the formation of a sun-stabilised standard layer and then inserted into the instrument and measured at five different points on each plate (UV transmittance range 290–400 nm). The blank was a plate coated with 32.5 mg glycerine, chosen for its non-fluorescence and UV transparency. In addition, in vitro SPF, UVAPF and ʎc values were calculated according to Equations (2)–(4) above. To evaluate the booster effect of selected synthesized compounds, they were incorporated at 3% concentration in an oil-in-water (O/W) sunscreen formulation with fixed SPF and UVAPf values (30 and 10, respectively).
Aiming to create compounds with diverse biological activities, the synthesized 2-styrylbenzothiazoles were examined for potential applications in sunscreens. Each candidate was incorporated into a standard cosmetic formulation at a concentration of 3% and subjected to photoprotective efficacy testing using the Diffey–Robson method. The formulation comprised an oil-in-water (O/W) emulsion suitable for sunscreen use, with each benzothiazole derivative being heat-solubilized in the oil phase and then dispersed into the emulsion using a turbo emulsifier. The mixture was then cooled, and the emulsion was spread onto polymethylmethacrylate (PMMA) plates before recording the transmittance spectra. The SPF value, UVA protection factor value (UVAPF), the […], and the critical wavelength (λc) were determined from the transmittance spectra using SPF calculator software and are presented in Table 3. These parameters are essential for evaluating the efficacy of potential sunscreen products.

[3] = Photostability of O/W emulsions under solar simulator; assay type: physicochemical; conditions: O/W emulsion on PMMA
Method: Oil-in-water (O/W) emulsions containing individual filters were spread on PMMA sheet and irradiated with a solar simulator by applying different doses of UVA equivalent to an erythema effective radiant exposure of 100 J/m^2. Photostability was assessed by analysing the spectral transmittance, before and after irradiation, of the sunscreen thin film, measured before and after exposure from 290 to 400 nm. The residual percentages of SPF in vitro (%SPFeff.) and UVAPF (%UVAPFeff.) were calculated according to Equations (6) and (7), respectively. When the %SPFeff. and %UVAPFeff. are greater than or equal to 80, according to current regulations, a filter can be considered photostable [37].
To evaluate the effectiveness and safety profile of a sunscreen formulation, it is necessary to provide data on its photostability. Photodegradation data can be obtained by recording the pre- and post-irradiation transmittance spectra of PMMA plates with finger-coat formulations exposed to a dose of UVA capable of causing erythema. This method, established by Garoli et al., is used to determine photostability. The sun protection layer’s transmission in the range of 290–400 nm is recorded before and after exposure to sunlight, following the protocol.
The residual percentages of SPF in vitro (%SPFeff.) and UVAPf (%UVAPfeff.) were calculated using Equations (6) and (7) and are listed in Table 4. A filter can be classified as photostable if the %SPFeff. is greater than or equal to 80, according to regulatory standards. %SPFeff. = in vitro SPFafter/in vitro SPFbefore × 100(6) %UVAPfeff. = UVAPfafter/UVAPfbefore × 100(7) where SPFafter and SPFbefore are the SPF values calculated from the software after and before solar irradiation, and UVAPfafter and UVAPfbefore are the UVAPf values calculated from the software after and before solar irradiation.

[4] = molecular target: T1, 5-LO in A23187-stimulated human PMNL (Homo sapiens, UniProt P09917); test: 5-Lipoxygenase inhibition in a cell-based assay (PMNL); conditions: PMNL; 3 µM; % relative to vehicle (DMSO); read-out: 5-LO Residual Activity (PMNL)
T1 construct: Freshly isolated PMNL (1 × 10^6 cells/mL) in PBS buffer pH 7.4; endogenous in cells; host or cells: primary human PMNL (neutrophils) isolated from blood
T1 sequence (P09917 1-674): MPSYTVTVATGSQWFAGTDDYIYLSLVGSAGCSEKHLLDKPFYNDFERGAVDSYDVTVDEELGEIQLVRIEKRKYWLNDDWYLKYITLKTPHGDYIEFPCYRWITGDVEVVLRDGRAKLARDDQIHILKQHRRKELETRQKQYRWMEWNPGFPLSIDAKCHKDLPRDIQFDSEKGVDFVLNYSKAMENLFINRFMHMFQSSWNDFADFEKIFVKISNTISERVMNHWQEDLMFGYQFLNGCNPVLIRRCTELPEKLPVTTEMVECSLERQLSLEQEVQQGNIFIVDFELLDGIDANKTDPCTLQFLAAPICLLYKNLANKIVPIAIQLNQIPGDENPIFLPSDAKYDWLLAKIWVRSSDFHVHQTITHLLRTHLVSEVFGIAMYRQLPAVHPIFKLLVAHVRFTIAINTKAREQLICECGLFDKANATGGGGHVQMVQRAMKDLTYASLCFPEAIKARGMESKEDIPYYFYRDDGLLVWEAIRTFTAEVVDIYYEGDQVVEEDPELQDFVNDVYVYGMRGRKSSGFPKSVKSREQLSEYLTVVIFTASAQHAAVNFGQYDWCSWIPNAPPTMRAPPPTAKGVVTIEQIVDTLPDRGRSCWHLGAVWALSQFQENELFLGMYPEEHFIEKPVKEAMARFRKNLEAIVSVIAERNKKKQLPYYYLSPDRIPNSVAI
Method: Following blood density centrifugation and cell population separation, PMNL was recovered from the pellet after hypotonic lysis of erythrocytes. Freshly isolated PMNL (1 × 10^6 cells/mL) in PBS buffer pH 7.4 with glucose (1 mg/mL) and CaCl2 (1 mM) was pre-incubated with the test compounds for 10 min at 37 °C. Then, 5-lipoxygenase (5-LO) product formation was started by addition of 2.5 μM Ca^2+-ionophore A23187 plus 20 μM arachidonic acid. The reaction was stopped after 10 min at 37 °C with 1 mL of ice-cold methanol containing 200 ng PGB1 as internal standard. Major 5-LO products (LTB4, trans-LTB4, epi-trans-LTB4, and 5-HETE) were extracted by SPE using Sep-Pak C18 35 cc Vac Cartridges (Waters, Milford, MA, USA) and analysed by UPLC-MS/MS as described by Pein et al..

Human recombinant 5-LO = molecular target: T2, Human recombinant 5-LO (Homo sapiens, UniProt P09917); test: 5-Lipoxygenase inhibition in a cell-free assay; assay type: biochemical; conditions: 3 µM; % relative to vehicle (DMSO); read-out: 5-LO Residual Activity (Cell-Free)
T2 construct: made in house
T2 sequence (P09917 1-674): T1 sequence (P09917 1-674)
Method: Human recombinant 5-LO was expressed and isolated as described before, and immediately used for activity assays after isolation. The 5-LO (0.5 µg, in 1 mL PBS pH 7.4 containing 1 mM EDTA) was pre-incubated with the test compounds for 10 min at 4 °C and pre-warmed for 30 s at 37 °C. 5-LO product formation was initiated by sequential addition of 1 mM CaCl2 and 20 μM arachidonic acid. After 10 min at 37 °C, the reaction was terminated by addition of 1 mL ice-cold methanol containing 200 ng PGB1 as internal standard. Formed 5-LO products (trans-LTB4, epi-trans-LTB4, and 5-HETE) were extracted using Sep-Pak C18 35 cc Vac Cartridges and analysed by UPLC-MS/MS as previously described.

[5] = tested on: human melanoma Colo38 cells; test: Cell growth inhibition assay, Colo38; assay type: cell-based; conditions: 24 h incubation; mean ± SD
Method: Cell growth inhibition analyses were performed on human melanoma Colo38 cells and skin HaCat keratinocytes. Human melanoma Colo38 cells were kindly given by Dr. Patrizio Giacomini (Laboratory of Immunology, Regina Elena Institute, Rome, Italy). HaCat cells were obtained from Istituto Zooprofilattico Sperimentale della Lombardia e dell’Emilia-Romagna, Brescia, Italy. Cells were seeded at 40,000 cells/mL and 25,000 cells/mL, respectively. Colo38 cells were maintained in RPMI 1640, supplemented with 10% foetal bovine serum (FBS), penicillin (100 Units/mL), and streptomycin (100 µg/mL). HaCat cells were maintained in DMEM, supplemented with 10% fatal bovine serum (FBS), penicillin (100 Units/mL), streptomycin (100 µg/mL) and glutamine (2 mM); the incubation was performed at 37 °C in a 5% CO2 atmosphere. Compounds were dissolved in DMSO to obtain 50 mM stock solutions and diluted before cell treatment in MeOH. The tested compounds were added at serial dilutions to the cell cultures (from 0.1 to 100 µM) and incubated for 24 h further. Cells were then harvested, suspended in physiological solution, and counted with a Z2 Coulter Counter (Coulter Electronics, Hialeah, FL, USA). The number of cells/mL and the IC50 values were determined when untreated cells were in the log phase of cell growth. Samples of vehicles and untreated cells were included in each plate. Cisplatin was used as positive control for the HaCat cells, while N1-(4-arylidene)-1H-(2-OH-4-N(Et)2-phenyl)-[d]imidazole-2-carbohydrazide was used as positive control for the Colo38 cell line.

With `c1ccc2c(c1)[I+]c1ccccc1-2` [DPI, Diphenyleneiodonium, reference compound] the “ROS Production (% of Control)” value (PMNL) was 16.44 ± 2.14 % of control.
For `O=S(=O)(O)c1ccc2[nH]c(-c3ccccc3)nc2c1` [PBSA, 2-Phenyl-1H-Benzimidazole-5-Sulphonic Acid, reference compound], the “Ɛ (molar extinction coefficient)” value [1] was 23,881.86 dm^3 mol^−1 cm^−1, the SPF [2] was 1.91 and the UVA/UVB [2] was 0.67. For the same compound, the UVAPF [2] was 1.13, the “ʎc (critical wavelength)” value [2] was 357 nm and the “%UVAPfeff.” value ([3]; residual UVAPF after solar irradiation) was 100.00%. The “%SPFeff.” value ([3]; residual in vitro SPF after solar irradiation) was 103.66%.
`CC(c1cc2ccccc2s1)N(O)C(N)=O` (centres unmarked) [Zileuton, zileuton, reference compound] showed a remaining activity at 3 µM [4] of 31.3 ± 12.7% and a remaining activity at 3 µM (Human recombinant 5-LO) of 28.6 ± 7.38%.
In the case of “N^1-(4-arylidene)-1H-(2-OH-4-N(Et)2-phenyl)-[d]imidazole-2-carbohydrazide [Cmp 13, reference compound]”, the IC50 [5] is reported as 700 ± 60 nM.
